Source: patent publication US12668599B2, “Heterobifunctional compounds and methods of treating disease” (Halda Therapeutics OpCo, Inc., priority 2023, dated 2026)

What was measured:
[1] = Stability analysis of Crystal Form A and Crystal Form B in solvent suspensions (XRPD); format: physicochemical
Description: The obtained suspensions were stirred at 25° C. and 50° C. for 1 week, respectively. Solid parts (wet cakes) were isolated by centrifugation filtration at […] temperature and investigated by XRPD.

[2] = biological target: T1, androgen receptor (AR) and bromodomain-containing protein 4 (BRD4) protein (Homo sapiens, UniProt O60885+P10275); assay: Ternary complex formation in VCaP cells (AR capture antibody ELISA); format: cell-based; conditions: FIG. 1
T1 construct: endogenous in cells; host or cells: VCaP cells
Description: Exemplary compounds were tested for ability to form a ternary complex containing a test compound, androgen receptor (AR), and bromodomain-containing protein 4 (BRD4) protein.
VCaP cells were cultured in ATCC DMEM medium supplemented with 10% ATCC fetal bovine serum, and 1% pen-strep (culture medium). 5000 cells were seeded in 100 μL of culture medium, per well in a clear 96-well poly-D-lysine coated plate. Plates were equilibrated to room temperature for 30 minutes. After equilibration, plates were incubated at 37° C. with 5% CO2 in a humidified tissue culture incubator. Black, opaque 96-well MaxiSorp plates were coated with 50 μL of a solution of androgen receptor antibody diluted in phosphate buffered saline (PBS). The coated plates were then quick-spun for 30 seconds before being sealed and placed in a fridge at 4° C. overnight. Test compounds were titrated in 100% DMSO the day before the experiment was performed and were left sealed in the dessicator overnight. QuantaRed™ Enhanced Chemifluorescent HRP Substrate Kit was taken out from 4° C. to warm up to room temperature. Plates coated with androgen receptor antibody were washed three times with 200 μL 1× Tris -Buffered Saline plus 0.1% Tween20 (TBST), then blocked with 200 μL 3% bovine serum albumin in TBST for approximately […] on a room temperature plate shaker at 500 rpm for 1 hour. […]

[3] = tested on: T-Rex 293 cell line SC3 cells lacking increased expression of androgen receptor protein; assay: Cellular growth inhibition, T-Rex 293 SC3 cells without doxycycline (CellTiter-Glo 2.0, 72 hours); format: cell-based; conditions: 72 h, T-Rex 293 SC3 cells not exposed to doxycycline (no increased androgen receptor expression)

T1 sequence (P10275 whole entry, other chains not shown): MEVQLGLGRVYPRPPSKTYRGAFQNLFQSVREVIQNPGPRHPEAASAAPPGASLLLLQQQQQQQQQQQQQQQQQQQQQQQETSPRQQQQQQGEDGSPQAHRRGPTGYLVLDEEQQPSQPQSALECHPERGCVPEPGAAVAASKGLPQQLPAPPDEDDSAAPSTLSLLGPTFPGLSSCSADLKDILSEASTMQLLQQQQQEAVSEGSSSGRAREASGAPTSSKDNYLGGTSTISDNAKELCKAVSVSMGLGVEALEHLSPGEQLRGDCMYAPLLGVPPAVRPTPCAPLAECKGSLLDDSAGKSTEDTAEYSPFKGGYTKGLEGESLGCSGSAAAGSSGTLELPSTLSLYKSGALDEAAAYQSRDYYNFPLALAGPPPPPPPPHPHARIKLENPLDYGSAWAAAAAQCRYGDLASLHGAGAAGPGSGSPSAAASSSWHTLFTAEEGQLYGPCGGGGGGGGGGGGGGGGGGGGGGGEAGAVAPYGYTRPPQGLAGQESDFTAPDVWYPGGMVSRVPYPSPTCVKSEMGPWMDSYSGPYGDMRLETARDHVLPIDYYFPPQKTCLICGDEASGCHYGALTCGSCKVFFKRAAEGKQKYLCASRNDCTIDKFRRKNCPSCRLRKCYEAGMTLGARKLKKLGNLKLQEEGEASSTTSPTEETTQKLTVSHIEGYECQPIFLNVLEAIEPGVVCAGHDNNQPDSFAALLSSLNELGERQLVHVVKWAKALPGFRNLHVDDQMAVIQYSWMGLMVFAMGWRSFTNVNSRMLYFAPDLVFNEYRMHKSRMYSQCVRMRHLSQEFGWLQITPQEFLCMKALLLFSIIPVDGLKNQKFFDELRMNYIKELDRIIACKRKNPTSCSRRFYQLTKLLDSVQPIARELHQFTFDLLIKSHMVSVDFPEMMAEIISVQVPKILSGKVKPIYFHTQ

SMILES: COc1cc(O[C@H]2C(C)(C)[C@H](NC(=O)c3cnc(N4CCC5(CC4)CC(Oc4ccc(C6=N[C@@H](Cc7ncco7)c7nnc(C)n7-c7sc(C)c(C)c76)cc4)C5)nc3)C2(C)C)ccc1C#N [II-5, N-[(1r,3r)-3-(4-cyano-3-methoxy-phenoxy)-2,2,4,4-tetramethyl-cyclobutyl]-2-[2-[4-[(9S)-4,5,13-trimethyl-9-(oxazol-2-ylmethyl)-3-thia-1,8,11,12-tetrazatricyclo[8.3.0.0^2,6]trideca-2 (6),4,7,10,12-pentaen-7-yl]phenoxy]-7-azaspiro[3.5]nonan-7-yl]pyrimidine-5-carboxamide]
- XRPD form after suspension ([1]; about 3 mg Crystal Form A + 3 mg Crystal Form B in saturated Acetone solution, 25° C. for 1 week): Crystal Form A
- XRPD form after suspension ([1]; about 3 mg Crystal Form A + 3 mg Crystal Form B in saturated Acetone solution, 50° C. for 1 week): Crystal Form A
- XRPD form after suspension ([1]; about 3 mg Crystal Form A + 3 mg Crystal Form B in saturated Acetonitrile solution, 25° C. for 1 week): Crystal Form A
- XRPD form after suspension ([1]; about 3 mg Crystal Form A + 3 mg Crystal Form B in saturated Acetonitrile solution, 50° C. for 1 week): Crystal Form A
- XRPD form after suspension ([1]; about 3 mg Crystal Form A + 3 mg Crystal Form B in saturated EtOH solution, 25° C. for 1 week): Crystal Form A
- XRPD form after suspension ([1]; about 3 mg Crystal Form A + 3 mg Crystal Form B in saturated EtOH solution, 50° C. for 1 week): Crystal Form A
- XRPD form after suspension ([1]; about 3 mg Crystal Form A + 3 mg Crystal Form B in saturated THF/Heptane (1/1, v/v) solution, 25° C. for 1 week): Crystal Form A
- XRPD form after suspension ([1]; about 3 mg Crystal Form A + 3 mg Crystal Form B in saturated THF/Heptane (1/1, v/v) solution, 50° C. for 1 week): Crystal Form A
- ternary complex formation between test compound, androgen receptor, and BRD4 [2]: detected
- GI50 [3]: < 500 nM
